From patent publication US11154527B2, “Dermatophytosis prophylaxis and treatment” (The Children's Mercy Hospital, priority 2015, dated 2021)
Where two headings read alike, the source gives them in different places.

Experiments:
[1] = system: 5 genetically distinct strain of T. tonsurans; test: MIC testing against 5 genetically distinct strains of T. tonsurans; format: cell-based; conditions: Trichophyton tonsurans
Protocol: (§1) Materials Used: • 10 mm×100 mm petri plate of dermatophyte culture grown to confluency (>14 days) on Sabouraud's dextrose agar (Becton Dickinson, Sparks Md.) containing 50 mg/L chloramphenicol and 500 mg/L cycloheximide (Sigma Chemical Company, St. Louis Mo.) (see appendix A for recipe). • 1× sterile Phosphate Buffered Saline (Sigma Chemical Company, St. Louis Mo.). • (2) 15 mL sterile disposable conical tubes (Thermo Fisher Scientific, Rochester N.Y.). • Disposable sterile inoculating loop (Fisher Scientific, Hanover Park Ill.). • Disposable sterile transfer pipette (Fisher Scientific, Hanover Park Ill.). • Sterilized 2″×2″ 4 ply gauze (Medline Industries, Mundelein Ill.) • 30 mL sterile disposable syringe (Becton Dickinson, Franklin Lakes N.J.). • Hemocytometer (Fisher Scientific, Hanover Park Ill.).
(§2) Spore Prep Procedure (performed aseptically in a biosafety cabinet): • The fungal plate was flooded with 10 mL of sterile 1×PBS and with a sterile disposable inoculating loop, then the surface was gently scraped until all the fungal material (hyphae and spores) was liberated into the PBS. • Using a disposable transfer pipette, the entire volume of PBS/spores was transferred from the plate into a sterile 15 mL conical tube. • Next, 2 mL of sterile 1×PBS was added to the plate and swirled to rinse. • Using the transfer pipette, the remaining volume of PBS/spores was transferred from the plate to the 15 mL conical. • Then, the 15 mL tube was capped and vortexed at max speed for 10-15 seconds, set aside. • The plunger from the 30 mL syringe was then removed and the barrel was packed with 1 square of sterile 2″×2″ gauze. • Using the plunger, the gauze was firmly packed at the bottom of the barrel then the plunger was removed. • The syringe barrel was placed into a new sterile 15 mL conical tube and the entire contents of the 15 mL PBS/spore suspension was poured directly onto the gauze in the syringe barrel. • The plunger was then gently inserted into the barrel and depressed all the way down to filter the spore/hyphal suspension through the gauze. • The plunger was gently removed and additional 2 mL of sterile PBS was added back to the original 15 mL conical tube.
(§3) MIC Testing (96 well format):
(§4) To Make the Spore Suspension:
(§5) • A 2 mM stock of the compound to be tested was made in 100% DMSO in a sterile 1.5 mL microfuge tube. • Vortexed the tube vigorously for 1 minute, then protected the compound from light and rocked or shook for 1 hour at room temperature to fully dissolve. • NOTE: Because the 2× culture media was diluted with an equal volume of spore/PBS solution to achieve a 1× final media concentration, the high standard for the range of compound to be tested was made at 2× the highest concentration desired and contain a final DMSO concentration of 0.5%.
(§6) To generate the range of compound to be tested, the following dilution protocol was performed:
(§7) (a) The high standard was made:
(§8) The result was 1000 μL of a 20 μM stock in 2× Culture Medium with a final [DMSO] of 1%.
(§9) (b) The drug dilution range to be tested was made by serially diluting the high standard 1:1 with 2× Culture Medium/1% DMSO.
(§10) Aseptically added 100 μL of the drug/media manually to each well according to the plate map in FIG. 2, as follows: […]

T. rubrum = test: MIC testing against different Trichophyton species: T. rubrum; format: cell-based
Protocol: (§11) Materials Used: • 10 mm×100 mm petri plate of dermatophyte culture grown to confluency (>14 days) on Sabouraud's dextrose agar (Becton Dickinson, Sparks Md.) containing 50 mg/L chloramphenicol and 500 mg/L cycloheximide (Sigma Chemical Company, St. Louis Mo.) (see appendix A for recipe). • 1× sterile Phosphate Buffered Saline (Sigma Chemical Company, St. Louis Mo.). • (2) 15 mL sterile disposable conical tubes (Thermo Fisher Scientific, Rochester N.Y.). • Disposable sterile inoculating loop (Fisher Scientific, Hanover Park Ill.). • Disposable sterile transfer pipette (Fisher Scientific, Hanover Park Ill.). • Sterilized 2″×2″ 4 ply gauze (Medline Industries, Mundelein Ill.) • 30 mL sterile disposable syringe (Becton Dickinson, Franklin Lakes N.J.). • Hemocytometer (Fisher Scientific, Hanover Park Ill.). […]

T. equinum = test: MIC testing against different Trichophyton species: T. equinum; format: cell-based
Protocol: as §11

[2] = system: reference strain of T. tonsurans; test: Preliminary screening of 7,676 compounds (384 well format), growth read at 600 nm; format: cell-based, Trichophyton tonsurans; conditions: preliminary screen
Protocol: as §1, §2
Screening (384 well format):
Note: final concentration of DMSO was not to exceed 0.5%.
NOTE: there was residual spore suspension, the calculations above allowed for overage to ensure enough suspension is made for each plate. • Using the peristaltic pump, the automated dispenser was programmed to deliver 35 μL of 2×SabDEX broth to each well in the 384 well plate. The pump was then purged of growth media and re-primed with the spore suspension. The dispenser was then programmed to deliver 35 μL of spore suspension to each test well (to include+growth controls). • Negative growth controls were made by manually pipetting 35 μL of sterile 1×PBS from a sterile multi-channel boat into each (−) control well using a 100 μL pipette. • Each plate was given a numerical designation, dated, sealed with an EDGE® seal and placed in a 32° C. incubator for 48 hours. • After incubation, the seal was carefully removed and the plate read at 600 nm using a single point read on a microplate reader. • If more time was required, the plate was re-sealed and incubated an additional 24 hours.

[3] = system: reference strain of T. tonsurans; test: MIC / dose-response testing against reference strain of T. tonsurans; format: cell-based, Trichophyton tonsurans; conditions: Trichophyton tonsurans
Protocol: as §1, §2, §3, §4, §5, §6, §7, §8, §9, §10

T. mentagrophytes = test: MIC testing against different Trichophyton species: T. mentagrophytes; format: cell-based
Protocol: as §11

[4] = range, reference strain of T. tonsurans (Table 2), read-out: IC50 [range]
[5] = reference strain of T. tonsurans (Table 2), read-out: IC50

| IC50 ([1]; T. tonsurans strain 0924-0254) [nM] | IC50 ([1]; T. tonsurans strain 0924-1093) [nM] | IC50 ([1]; T. tonsurans strain 0924-1456) [nM] | IC50 ([1]; T. tonsurans strain 0924-1669) [nM] | IC50 ([1]; T. tonsurans strain 1119-0616) [nM] | IC50 (T. rubrum) [nM] | IC50 (T. equinum) [nM] | IC50 ([3]; dose response (DR plate), reference strain of T. tonsurans, read-out: rMIC50) [nM] | IC50 [3, 4] [nM] | IC50 [3, 5] [nM] | IC50 (T. mentagrophytes) [nM] | SMILES | Prelim H ratio [2] | Prelim L ratio [2] |
| --- | --- | --- | --- | --- | --- | --- | --- | --- | --- | --- | --- | --- | --- |
| 3 | 5 | 15 | 5 | 10 | 68 | 21 | < 10 | 3 to 58 | 10 | 19 | COCc1c(C(C)C)nc(C(C)C)c(/C=C/[C@@H](O)C[C@@H](O)CC(=O)O)c1-c1ccc(F)cc1 [Cerivastatin] | 1.06 | 2.28 |
| 29 | 50 | 52 | 52 | 62 | 303 | 86 |  | 24 to 62 | 30 | 71 | CCC(C)(C)C(=O)O[C@H]1C[C@@H](C)C=C2C=C[C@H](C)[C@H](CC[C@@H](O)C[C@@H](O)CC(=O)O)[C@H]21 [simvistatin acid] |  |  |
